target: human Plasma Kallikrein (KLKB1) (Homo sapiens (Human), UniProt P03952); experiment: Inhibition of KLKB1 endpoint assay; type: biochemical; conditions: fluorogenic substrate H-Pro-Phe-Arg-AMC, 1 hr at Room Temperature, read-out: IC50 measurements for the inhibition of human Plasma Kallikrein (KLKB1)
Method: The ability of compounds of Formula I to inhibit plasma kallikrein (KLKB1), Factor XIIa (FXIIa), Factor XIa (FXIa), Factor Xa (FXa), Factor IIa (alpha-thrombin; FIIa), plasmin, trypsin, tissue kallikrein 1 (KLK1), Factor VIIa (FVIIa), or FVIIa complexed with Tissue Factor, phospholipids and CaCl2 (FVIIa/TF/PL/CaCl2) was determined using the following biochemical assays in assay buffer (100 mM Tris, 150 mM NaCL, adjusted to a pH of 7.8 with HCl, and containing 0.1% (w/v) BSA and 0.05% (v/v) Tween20) in the presence of 1% (v/v) DMSO:
Evaluation of the Inhibition of KLKB1 Using an Endpoint Assay
Subsequently, PPACK II (Calbiochem) was added as a stop solution to achieve a final concentration of 1 μM and fluorescence was measured using an Envision Reader (PerkinElmer) with the wavelength excitation setting of 355 nm and the wavelength emission setting of 460 nm.
The IC50 values were obtained with the aid of the inhibition of KLKB1 endpoint assay described above.

Sequence of human Plasma Kallikrein (KLKB1) (P03952 391-638): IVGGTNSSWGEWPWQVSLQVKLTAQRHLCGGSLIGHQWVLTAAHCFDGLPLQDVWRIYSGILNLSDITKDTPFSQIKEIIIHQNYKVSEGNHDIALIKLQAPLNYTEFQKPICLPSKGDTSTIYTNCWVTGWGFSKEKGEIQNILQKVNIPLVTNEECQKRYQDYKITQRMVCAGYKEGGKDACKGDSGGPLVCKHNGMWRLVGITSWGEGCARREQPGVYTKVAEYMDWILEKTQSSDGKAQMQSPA
Sequence of human Plasma Kallikrein (KLKB1) (P03952 20-390 partner): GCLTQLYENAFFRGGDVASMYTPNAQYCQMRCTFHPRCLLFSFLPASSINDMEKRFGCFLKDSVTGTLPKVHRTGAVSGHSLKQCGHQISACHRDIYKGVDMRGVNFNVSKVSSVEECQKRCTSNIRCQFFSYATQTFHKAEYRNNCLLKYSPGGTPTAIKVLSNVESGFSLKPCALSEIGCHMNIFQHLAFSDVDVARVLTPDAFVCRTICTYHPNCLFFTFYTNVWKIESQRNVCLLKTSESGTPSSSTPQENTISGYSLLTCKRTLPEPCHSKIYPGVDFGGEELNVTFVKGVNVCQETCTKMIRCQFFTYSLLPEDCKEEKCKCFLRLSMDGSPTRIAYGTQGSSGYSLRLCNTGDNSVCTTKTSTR

SMILES	IC50 [nM]
Nc1ccc2c(n1)CCC2NC(=O)c1cn(Cc2ccc(N3CC4CCCN4C3=O)cc2)nn1 (stereo not shown) [Example 63, 1-[4-(3-Oxo-tetrahydro-pyrrolo[1,2-c]imidazol-2-yl)-benzyl]-1H-[1,2,3]triazole-4-carboxylic acid (2-amino-6,7-dihydro-5H-[1]pyrindin-5-yl)-amide]	3000
Nc1ccc2c(n1)CCC2NC(=O)c1cn(Cc2ccc(CN3CCC4(CC4)C3=O)cc2)nn1 (stereo not shown) [Example 64, 1-[4-(4-Oxo-5-aza-spiro[2.4]hept-5-ylmethyl)-benzyl]-1H-[1,2,3]triazole-4-carboxylic acid (2-amino-6,7-dihydro-5H-[1]pyrindin-5-yl)-amide]	580
Nc1ccc2c(n1)CCC2NC(=O)c1cn(Cc2ccc(N3CC4CC4C3=O)cc2)nn1 (stereo not shown) [Example 65, 1-[4-(2-Oxo-3-aza-bicyclo[3.1.0]hex-3-yl)-benzyl]-1H-[1,2,3]triazole-4-carboxylic acid (2-amino-6,7-dihydro-5H-[1]pyrindin-5-yl)-amide]	1100
Cc1cc(Cn2cc(C(=O)N[C@@H]3CCc4nc(N)ccc43)cn2)ccc1CN1CC2CC2C1=O (stereo partly drawn) [Example 66, 1-[3-Methyl-4-(2-oxo-3-aza-bicyclo[3.1.0]hex-3-ylmethyl)-benzyl]-1H-pyrazole-4-carboxylic acid ((R)-2-amino-6,7-dihydro-5H-[1]pyrindin-5-yl)-amide]	18
Cc1cc(CN2CC3CC3C2=O)ccc1Cn1cc(C(=O)N[C@@H]2CCc3nc(N)ccc32)cn1 (stereo partly drawn) [Example 69, 1-[2-Methyl-4-(2-oxo-3-aza-bicyclo[3.1.0]hex-3-ylmethyl)-benzyl]-1H-pyrazole-4-carboxylic acid ((R)-2-amino-6,7-dihydro-5H-[1]pyrindin-5-yl)-amide]	55
Nc1ccc2c(n1)CCC2NC(=O)c1cn(Cc2cccc(N3CCN4CCCCC4C3=O)c2)nn1 (stereo not shown) [Example 70, 1-[3-(1-Oxo-octahydro-pyrido[1,2-a]pyrazin-2-yl)-benzyl]-1H-[1,2,3]triazole-4-carboxylic acid (2-amino-6,7-dihydro-5H-[1]pyrindin-5-yl)-amide]	> 10000
CC(c1ccc(N2CC3CC3C2)nc1)n1cc(C(=O)N[C@@H]2CCc3c2ccnc3N)cn1 (stereo partly drawn) [Example 71, 1-{1-[6-(3-Aza-bicyclo[3.1.0]hex-3-yl)-pyridin-3-yl]-ethyl}-1H-pyrazole-4-carboxylic acid ((R)-1-amino-6,7-dihydro-5H-[2]pyrindin-5-yl)amide]	9
Nc1nccc2c1CC[C@H]2NC(=O)c1cnn(C2(c3ccc(N4CC5CC5C4)nc3)CC2)c1 (stereo partly drawn) [Example 74, 1-{1-[6-(3-Aza-bicyclo[3.1.0]hex-3-yl)-pyridin-3-yl]-cyclopropyl}-1H-pyrazole-4-carboxylic acid ((R)-1-amino-6,7-dihydro-5H-[2]pyrindin-5-yl)amide]	41
Nc1nccc2c1CC[C@H]2NC(=O)c1cnn(Cc2ccc(N3CC4CC4C3)nc2)c1 (stereo partly drawn) [Example 75, 1-[6-(3-Aza-bicyclo[3.1.0]hex-3-yl)-pyridin-3-ylmethyl]-1H-pyrazole-4-carboxylic acid ((R)-1-amino-6,7-dihydro-5H-[2]pyrindin-5-yl)amide]	1
Nc1ccc2c(n1)CC[C@H]2NC(=O)c1cn(Cc2ccc(N3CC4CC4C3)nc2)nc1C(F)(F)F (stereo partly shown) [Example 78]	21
Nc1ccc2c(n1)CC[C@H]2NC(=O)c1cnn(Cc2cnc(N3CC4CC4C3)nc2)c1 (stereo partly shown) [Example 81]	19
Nc1ccc2c(n1)CC[C@H]2NC(=O)c1cn(Cc2cnc(N3CC4CC4C3)nc2)nn1 (stereo partly shown) [Example 83]	73
Nc1ccc2c(n1)CC[C@H]2NC(=O)c1cnn(Cc2cnc(N3CC4CC4C3)cn2)c1 (stereo partly shown) [Example 86]	34
Cc1cc(N)nc2c1C(NC(=O)c1cn(Cc3ccc(N4CC5COCCN5C4=O)cc3)nn1)CC2 (stereo not shown) [Example 87, 1-[4-(3-Oxo-tetrahydro-imidazo[5,1-c][1,4]oxazin-2-yl)-benzyl]-1H-[1,2,3]triazole-4-carboxylic acid (2-amino-4-methyl-6,7-dihydro-5H-[1]pyrindin-5-yl)-amide]	3200
Nc1nccc2c1CC[C@H]2NC(=O)c1cnn(Cc2ccc(N3CC4(COC4)C3)nc2)c1 [Example 90]	78
Nc1nccc2c1CC[C@H]2NC(=O)c1cnn(Cc2ccc(N3C[C@@H]4[C@@H](CO)[C@@H]4C3)nc2)c1 [Example 91]	38
Nc1ccc2c(n1)CC[C@H]2NC(=O)c1cn(Cc2cnc(N3CC4CC4C3)nc2)nc1C(F)(F)F (stereo partly shown) [Example 92]	23

Second part, the compound after the results:

IC50 [nM]	SMILES
8	Nc1ccc2c(n1)CC[C@H]2NC(=O)c1cnn(Cc2ccc(N3CC4CC4C3)nc2)c1 (stereo partly shown) [Example 76]
2	Nc1nccc2c1CC[C@H]2NC(=O)c1cn(Cc2ccc(N3CC4CC4C3)nc2)nc1C(F)(F)F (stereo partly shown) [Example 77]
8	Nc1nccc2c1CC[C@H]2NC(=O)c1cnn(Cc2ccc(N3CC4CCC4C3)nc2)c1 (stereo partly shown) [Example 79]
3	Nc1nccc2c1CC[C@H]2NC(=O)c1cnn(Cc2cnc(N3CC4CC4C3)nc2)c1 (stereo partly shown) [Example 80]
7	Nc1nccc2c1CC[C@H]2NC(=O)c1cn(Cc2cnc(N3CC4CC4C3)nc2)nn1 (stereo partly shown) [Example 82]
1	Nc1nccc2c1CC[C@H]2NC(=O)c1cnn(Cc2ccc(N3CC4C(C3)C4(F)F)nc2)c1 (stereo partly shown) [Example 84]
4	Nc1nccc2c1CC[C@H]2NC(=O)c1cnn(Cc2cnc(N3CC4CC4C3)cn2)c1 (stereo partly shown) [Example 85]
5	Nc1nccc2c1CC[C@H]2NC(=O)c1cnn(Cc2ccc(N3CCC4(CC4)C3)nc2)c1 [Example 89]
